Source: paper PMC4780864, “Family-wide Structural Analysis of Human Numb-Associated Protein Kinases” (Structure(London, England:1993), 2016)

Legend:
Test in all cases: biochemical
MPSK1 = biological target: T1, MPSK1 (Homo sapiens, UniProt O75716); set-up: Thermal shift assay (DSF, SYPRO Orange), 2 uM kinase domain, mean delta Tm of triplicates versus DMSO; conditions: read-out: MPSK1
T1 construct: gene STK16; catalytic domain-containing construct
Protocol: (§1) All measurements were performed in triplicate and mean values were reported for all compounds (Table S1). […] However, NAKs are often omitted from selectivity panels, including commercial screens.

GAK = biological target: T2, GAK (Homo sapiens, UniProt O14976); set-up: Thermal shift assay (DSF, SYPRO Orange), 2 uM kinase domain, mean delta Tm of triplicates versus DMSO; conditions: for ΔTm at 12.5 µM: read-out: GAK
T2 construct: catalytic domain-containing construct
T2 sequence (O14976 1-1311): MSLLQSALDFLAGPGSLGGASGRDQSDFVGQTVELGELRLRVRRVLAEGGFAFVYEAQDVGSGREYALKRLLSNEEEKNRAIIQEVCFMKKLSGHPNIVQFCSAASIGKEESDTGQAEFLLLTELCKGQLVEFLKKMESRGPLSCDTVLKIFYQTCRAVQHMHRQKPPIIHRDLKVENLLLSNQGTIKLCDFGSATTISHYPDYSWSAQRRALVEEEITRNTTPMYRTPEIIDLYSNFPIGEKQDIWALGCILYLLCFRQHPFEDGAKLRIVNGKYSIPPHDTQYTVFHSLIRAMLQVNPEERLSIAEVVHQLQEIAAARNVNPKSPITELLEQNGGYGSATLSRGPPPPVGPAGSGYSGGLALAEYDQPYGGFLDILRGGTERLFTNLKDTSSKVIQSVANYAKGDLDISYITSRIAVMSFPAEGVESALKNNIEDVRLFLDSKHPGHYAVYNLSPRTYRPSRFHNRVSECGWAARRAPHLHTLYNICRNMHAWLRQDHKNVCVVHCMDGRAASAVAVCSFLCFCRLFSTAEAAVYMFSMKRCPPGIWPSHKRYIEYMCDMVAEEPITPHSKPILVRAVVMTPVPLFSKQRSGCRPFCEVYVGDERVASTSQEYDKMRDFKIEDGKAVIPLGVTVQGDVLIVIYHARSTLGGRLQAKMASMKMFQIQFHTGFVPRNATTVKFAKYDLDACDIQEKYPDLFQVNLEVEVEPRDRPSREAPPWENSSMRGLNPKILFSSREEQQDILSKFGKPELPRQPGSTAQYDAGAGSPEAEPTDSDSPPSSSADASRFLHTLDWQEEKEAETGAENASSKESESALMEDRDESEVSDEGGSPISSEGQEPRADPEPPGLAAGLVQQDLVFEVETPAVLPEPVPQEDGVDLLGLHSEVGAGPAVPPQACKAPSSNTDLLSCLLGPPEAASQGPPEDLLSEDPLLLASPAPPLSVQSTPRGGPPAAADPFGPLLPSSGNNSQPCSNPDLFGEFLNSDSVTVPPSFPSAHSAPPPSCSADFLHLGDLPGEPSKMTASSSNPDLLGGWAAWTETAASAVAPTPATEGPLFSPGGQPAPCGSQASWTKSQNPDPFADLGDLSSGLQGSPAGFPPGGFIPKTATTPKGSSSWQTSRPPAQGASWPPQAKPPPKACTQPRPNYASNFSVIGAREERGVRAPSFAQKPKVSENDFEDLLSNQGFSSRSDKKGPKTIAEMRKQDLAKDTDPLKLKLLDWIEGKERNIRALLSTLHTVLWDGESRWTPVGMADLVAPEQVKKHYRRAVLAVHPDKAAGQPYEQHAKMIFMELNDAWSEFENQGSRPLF
Protocol: as §1

BIKE = biological target: T3, BIKE (Homo sapiens, UniProt Q9NSY1); set-up: Thermal shift assay (DSF, SYPRO Orange), 2 uM kinase domain, mean delta Tm of triplicates versus DMSO; conditions: read-out: BIKE
T3 construct: gene BMP2K; catalytic domain-containing construct
Protocol: as §1

AAK1 = AAK1 (Homo sapiens, UniProt Q2M2I8); set-up: kinase domain; Thermal shift assay (DSF, SYPRO Orange), 2 uM kinase domain, mean delta Tm of triplicates versus DMSO; conditions: read-out: AAK1
Protocol: as §1

T1 sequence (O75716 whole entry, the tested form may be a part): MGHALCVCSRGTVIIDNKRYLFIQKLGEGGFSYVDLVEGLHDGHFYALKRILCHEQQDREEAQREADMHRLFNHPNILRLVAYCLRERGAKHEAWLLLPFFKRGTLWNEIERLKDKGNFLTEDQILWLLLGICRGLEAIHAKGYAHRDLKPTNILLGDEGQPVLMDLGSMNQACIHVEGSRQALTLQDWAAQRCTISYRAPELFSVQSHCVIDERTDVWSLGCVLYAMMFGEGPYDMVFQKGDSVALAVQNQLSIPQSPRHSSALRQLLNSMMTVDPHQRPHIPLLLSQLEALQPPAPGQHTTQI
T3 sequence (Q9NSY1 whole entry, the tested form may be a part): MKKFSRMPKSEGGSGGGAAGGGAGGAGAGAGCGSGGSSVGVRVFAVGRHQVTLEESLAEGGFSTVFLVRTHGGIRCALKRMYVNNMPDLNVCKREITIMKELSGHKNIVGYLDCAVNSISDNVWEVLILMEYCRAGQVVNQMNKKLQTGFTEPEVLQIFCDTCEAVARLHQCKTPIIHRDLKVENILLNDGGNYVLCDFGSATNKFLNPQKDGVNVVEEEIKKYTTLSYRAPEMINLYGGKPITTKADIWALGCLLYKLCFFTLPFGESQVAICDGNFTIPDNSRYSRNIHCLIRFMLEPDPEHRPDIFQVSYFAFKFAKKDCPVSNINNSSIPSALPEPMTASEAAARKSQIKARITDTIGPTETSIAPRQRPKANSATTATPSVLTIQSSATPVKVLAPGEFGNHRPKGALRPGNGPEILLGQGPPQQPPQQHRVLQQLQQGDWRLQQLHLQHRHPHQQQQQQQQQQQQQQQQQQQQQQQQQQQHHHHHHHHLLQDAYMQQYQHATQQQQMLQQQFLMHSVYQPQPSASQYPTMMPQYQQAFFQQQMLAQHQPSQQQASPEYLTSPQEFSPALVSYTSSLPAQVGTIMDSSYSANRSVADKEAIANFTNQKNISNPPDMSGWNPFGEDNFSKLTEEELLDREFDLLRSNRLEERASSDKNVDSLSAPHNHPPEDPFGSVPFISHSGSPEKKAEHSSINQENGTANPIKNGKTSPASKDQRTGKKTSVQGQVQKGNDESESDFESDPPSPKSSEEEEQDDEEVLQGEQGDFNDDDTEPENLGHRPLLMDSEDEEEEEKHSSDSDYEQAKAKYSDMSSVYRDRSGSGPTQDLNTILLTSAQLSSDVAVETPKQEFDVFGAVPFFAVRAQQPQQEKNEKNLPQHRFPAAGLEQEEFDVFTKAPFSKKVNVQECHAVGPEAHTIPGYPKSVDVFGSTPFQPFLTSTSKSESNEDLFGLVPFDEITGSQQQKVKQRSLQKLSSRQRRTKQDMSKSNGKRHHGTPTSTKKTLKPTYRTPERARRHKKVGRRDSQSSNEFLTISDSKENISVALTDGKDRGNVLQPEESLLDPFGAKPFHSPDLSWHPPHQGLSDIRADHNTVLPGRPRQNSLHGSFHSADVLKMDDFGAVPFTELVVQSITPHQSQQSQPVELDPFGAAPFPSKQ
AAK1, sequence (Q2M2I8 27-365 limits assumed): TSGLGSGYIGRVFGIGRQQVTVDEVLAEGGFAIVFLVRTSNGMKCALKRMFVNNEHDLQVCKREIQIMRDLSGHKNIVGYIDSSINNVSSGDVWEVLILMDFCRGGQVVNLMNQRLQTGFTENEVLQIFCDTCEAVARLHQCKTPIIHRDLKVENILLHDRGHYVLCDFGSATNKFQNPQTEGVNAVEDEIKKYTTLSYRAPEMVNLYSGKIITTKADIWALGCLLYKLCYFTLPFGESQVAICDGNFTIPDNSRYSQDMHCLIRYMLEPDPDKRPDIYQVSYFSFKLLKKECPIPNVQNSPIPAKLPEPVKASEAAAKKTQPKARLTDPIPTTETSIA

| Structure (SMILES) | ΔTm at 12.5 µM (MPSK1) [°C] | ΔTm at 12.5 µM (GAK) [°C] | ΔTm at 12.5 µM (BIKE) [°C] | ΔTm at 12.5 µM (AAK1) [°C] | GAK (GAK; 12.5 µM) [°C] |
| --- | --- | --- | --- | --- | --- |
| COc1cc2ncnc(Nc3ccc(F)c(Cl)c3)c2cc1NC(=O)/C=C/CN1CCCCC1 [Dacomitinib] | 0.97 | 7.28 | 5.85 | 3.8 | – |
| C#Cc1cccc(Nc2ncnc3cc(OC)c(OCCCCCCC(=O)NO)cc23)c1 [CUDC-101] | 0.407 | 2.77 | 0.917 | 0.713 | – |
| CNC(=O)c1cc(Oc2ccc(NC(=O)Nc3cc(C(C)(C)C)nn3-c3ccc4ncccc4c3)c(F)c2)ccn1 [Rebastinib] | 0.907 | 9.94 | 0.707 | 0.473 | – |
| Cc1cc(C(=O)NOCCO)c(Nc2ccc(I)cc2F)n(C)c1=O [AZD8330] | 0.463 | -0.347 | 0.227 | 0.187 | – |
| Cc1ccc(NC(=O)c2ccc(CN3CCN(C)CC3)cc2)cc1Nc1nc(-c2cccnc2)cs1 [Masitinib] | 0.99 | 1.98 | 0.833 | 0.547 | – |
| Cn1cnc2c(F)c(Nc3ccc(Br)cc3F)c(C(=O)NOCCO)cc21 [MEK-162] | 0.6 | -0.617 | 0.367 | 0.197 | – |
| C[C@@H]1CCN(C(=O)CC#N)C[C@@H]1N(C)c1ncnc2[nH]ccc12 [Tofacitinib] | 1.35 | -0.58 | 2.18 | 0.68 | – |
| CCc1cc2c(cc1N1CCC(N3CCOCC3)CC1)C(C)(C)c1[nH]c3cc(C#N)ccc3c1C2=O [Alectinib] | 1.29 | 6.7 | 0.673 | 0.613 | – |
| CC[C@@H]1C(=O)N(C)c2cnc(Nc3ccc(C(=O)N[C@H]4CC[C@H](N5CCN(CC6CC6)CC5)CC4)cc3OC)nc2N1C(C)C [Volasertib] | 4.59 | 2.74 | 3.48 | 3.06 | – |
| Cc1nc(Nc2ncc(C(=O)Nc3c(C)cccc3Cl)s2)cc(N2CCN(CCO)CC2)n1 [Dasatinib] | 0.0333 | – | -0.673 | 0.363 | 0.14 |
| CN1CCC(COc2cnc(-c3cccc(Cn4nc(-c5cccc(C#N)c5)ccc4=O)c3)nc2)CC1 [EMD1214063] | 0.74 | -0.86 | 0.493 | 0.79 | – |
| COc1cc2c(Oc3ccc4[nH]c(C)cc4c3F)ncnc2cc1OCCCN1CCCC1 [Cediranib] | 1.03 | 0.667 | 1.58 | 0.543 | – |
| CNc1nc(-c2ccc3c(N)n[nH]c3c2)cc(N2C[C@@H](C(=O)NC3CCCCC3)CC[C@H]2C)n1 [GSK2334470] | 0.883 | 1.69 | 5.35 | 4.98 | – |
| Cc1ccc(-n2nc(C(C)(C)C)cc2NC(=O)Nc2ccc(OCCN3CCOCC3)c3ccccc23)cc1 [Doramapimod] | 0.217 | -0.607 | 0.16 | -0.103 | – |
| COc1cc(OC2CCN(C)CC2)ccc1Nc1ncc2c(n1)n(C1CCCC1)c(=O)n2C [AZ3146] | 4.12 | 6.52 | 6.16 | 5.37 | – |
| COc1ncc(-c2ccc3nccc(-c4ccnnc4)c3c2)cc1NS(=O)(=O)c1ccc(F)cc1F [GSK2126458] | 6.45 | 3.33 | 5.45 | 4.05 | – |
